Test results: ChEMBL document CHEMBL1147359, “Antitumor agents, 138. Rotenoids and isoflavones as cytotoxic constitutents from Amorpha fruticosa” (1993)
≈ marks a conversion by molar mass, not a printed value. Calls of active or inactive are those of the source. The rule behind the calls is not given here.

Key:
A549 [1] = assay: Cytotoxicity against human A549 cells at 10 ug/ml; assay type: functional, cell-based
HCT-8 [2] = assay: Cytotoxicity against human HCT8 cells; assay type: functional; settings: read-out: ED50 (the source's name)
RPMI-7951 [3] = assay: Cytotoxicity against human RPMI7951 cells; assay type: functional; settings: read-out: ED50 (the source's name)
TE-671 [4] = assay: Cytotoxicity against human TE671 cells; assay type: functional; settings: read-out: ED50 (the source's name)
KB [5] = assay: Cytotoxicity against human KB cells; assay type: functional; settings: read-out: ED50 (the source's name)
P388 [6] = assay: Cytotoxicity against mouse P388 cells; assay type: functional; settings: read-out: ED50 (the source's name)
TE-671 [7] = assay: Cytotoxicity against human TE671 cells at 10 ug/ml; assay type: functional, cell-based
A549 [8] = assay: Cytotoxicity against human A549 cells; assay type: functional; settings: read-out: ED50 (the source's name)
HCT-8 [9] = assay: Cytotoxicity against human HCT8 cells at 10 ug/ml; assay type: functional, cell-based
RPMI-7951 [10] = assay: Cytotoxicity against human RPMI7951 cells at 10 ug/ml; assay type: functional, cell-based
KB [11] = assay: Cytotoxicity against human KB cells at 10 ug/ml; assay type: functional, cell-based
P388 [12] = assay: Cytotoxicity against mouse P388 cells at 10 ug/ml; assay type: functional, cell-based

| SMILES | ED50 (A549 [1]) | EC50 (HCT-8 [2]) | EC50 (RPMI-7951 [3]) | EC50 (TE-671 [4]) | EC50 (KB [5]) | EC50 (P388 [6]) | ED50 (TE-671 [7]) | EC50 (A549 [8]) | ED50 (HCT-8 [9]) | ED50 (RPMI-7951 [10]) | ED50 (KB [11]) | ED50 (P388 [12]) |
| --- | --- | --- | --- | --- | --- | --- | --- | --- | --- | --- | --- | --- |
| COc1cc2c(cc1OC)[C@@H]1C(=O)c3ccc4c(c3O[C@@H]1CO2)C[C@H](C(C)(C)O[C@@H]1O[C@H](CO)[C@@H](O)[C@H](O)[C@H]1O)O4 | inactive | 7.43 µg/mL (≈ 12.9 µM) | 4.44 µg/mL (≈ 7.73 µM) | 2.95 µg/mL (≈ 5.13 µM) | 6.32 µg/mL (≈ 11 µM) | 6.68 µg/mL (≈ 11.6 µM) |  |  |  |  |  |  |
| COc1ccc2c(=O)c(-c3cc(OC)c(OC)cc3OC)coc2c1 | inactive | 4.63 µg/mL (≈ 13.5 µM) | 0.49 µg/mL (≈ 1.43 µM) |  | 0.55 µg/mL (≈ 1.61 µM) | 0.53 µg/mL (≈ 1.55 µM) | inactive |  |  |  |  |  |
| COc1cc2c(cc1OC)[C@]1(O)C(=O)c3ccc4c(c3O[C@@H]1CO2)C[C@H](C(C)(C)O)O4 |  | 0.56 µg/mL (≈ 1.31 µM) | 0.73 µg/mL (≈ 1.7 µM) | 0.12 µg/mL (≈ 0.28 µM) | 3.67 µg/mL (≈ 8.57 µM) | 0.59 µg/mL (≈ 1.38 µM) |  | 9.28 µg/mL (≈ 21.7 µM) |  |  |  |  |
| COc1ccc(-c2coc3c(OC)c(O)ccc3c2=O)cc1 | inactive |  |  |  |  |  | inactive |  | inactive | inactive | inactive | inactive |
| COc1ccc(-c2coc3cc(O)c(OC)cc3c2=O)cc1 | inactive |  |  |  |  |  | inactive |  | inactive | inactive | inactive | inactive |
| C=C(CO)[C@H]1Cc2c(ccc3c2O[C@@H]2COc4cc(OC)c(OC)cc4[C@@H]2C3=O)O1 [AMORPHIGENIN] |  | 0.03 µg/mL (≈ 0.0731 µM) | 0.05 µg/mL (≈ 0.122 µM) | < 0.01 µg/mL | 0.04 µg/mL (≈ 0.0975 µM) | 0.04 µg/mL (≈ 0.0975 µM) |  | 0.05 µg/mL (≈ 0.122 µM) |  |  |  |  |
| COC1=CC(=O)[C@]2(C=C1OC)OC[C@H]1Oc3c(ccc4c3C=CC(C)(C)O4)C(=O)[C@H]12 [AMORPHISPIRONONE] | inactive |  | 0.61 µg/mL (≈ 1.49 µM) |  | 0.58 µg/mL (≈ 1.41 µM) |  | inactive |  | inactive |  |  | inactive |
| C=C(CO)[C@H]1Cc2c(ccc3c2O[C@@H]2COc4cc(OC)c(OC)cc4[C@]2(O)C3=O)O1 [DABINOL] |  | < 0.001 µg/mL | < 0.001 µg/mL | < 0.001 µg/mL | < 0.001 µg/mL | < 0.001 µg/mL |  | < 0.001 µg/mL |  |  |  |  |
| COc1cc2c(cc1OC)[C@@H]1C(=O)c3ccc4c(c3O[C@@H]1CO2)C[C@H](C(C)(C)O)O4 [DALPANOL] |  | 0.48 µg/mL (≈ 1.16 µM) | 4.83 µg/mL (≈ 11.7 µM) | 0.49 µg/mL (≈ 1.19 µM) | 0.89 µg/mL (≈ 2.16 µM) |  |  | 0.86 µg/mL (≈ 2.09 µM) |  |  |  | inactive |
| COc1cc2c(cc1OC)[C@]1(O)C(=O)c3ccc4c(c3O[C@@H]1CO2)C=CC(C)(C)O4 [TEPHROSIN] |  | 0.09 µg/mL (≈ 0.219 µM) | 0.07 µg/mL (≈ 0.171 µM) | 0.05 µg/mL (≈ 0.122 µM) | 0.36 µg/mL (≈ 0.877 µM) | 0.06 µg/mL (≈ 0.146 µM) |  | < 0.001 µg/mL |  |  |  |  |
